Laboratory results taken from patent US20200390774A1, “TRPA1 ANTAGONISTS FOR USE IN THE TREATMENT OF ATOPIC DERMATITIS” (GALDERMA RESEARCH & DEVELOPMENT, priority 2016, published 2020).
pIC50: −log10 of the molar value.

Experiments:
[1] = test system: TRPA1 agonist-induced ear edema; test: Topical PD model: AITC (TRPA1 agonist)-induced ear edema; format: in vivo, mouse; details: topical 1% or 3% in acetone, 1 h before 6% AITC, measured during 6 hours
Description: Test antagonists B to D were formulated at 1% or 3% in an acetone vehicle, applied to the mouse ear skin (10 μl/ear both faces) and left for 1 hour. Then, 10 μl of a 6% solution of allyl isothiocyanate (AITC) in acetone (vehicle 001) was applied to the same location, and ear thickness was measured at TO, 30 min, 1 h, 2 h, 4 h and 6 h. A topical pharmacodynamics (PD) model was designed in mouse, in which test antagonists B to D were formulated at 1% or 3% in an acetone vehicle, applied to the ear skin and left for 1 hour. After this time, a 6% solution of allyl isothiocyanate (AITC), a TRPA1 agonist, in acetone (vehicle 001) was then applied to the same location and ear edema (via the ear thickness) was measured during 6 hours.

[2] = test system: mouse AD-patch model; test: AD-patch model (DERP epicutaneous sensitization); format: in vivo; details: topical 1% in acetone, days 44, 47 and 50; for epidermis thickness, change / inflammatory scores, change: day 51 histology; for TEWL-increase, change: measured day 51
Description: Female Balb/c mice were treated with Dermatophagoïdes pteronyssinus (DERP) allergen in 3 cycles of epicutaneous sensitization (patch) on abdominal skin with 2 patches applied twice weekly followed by 2 weeks of rest, during 7 weeks. Antagonists B or D were formulated at 1% in an acetone vehicle, applied to the sensitized-skin 2 hours before DERP-patches installation. Topical treatments with antagonists or a corticosteroid (used as a control) were only performed 3 times in the 3rd and last week of sensitization (at days 44, 47 and 50).
TEWL is measured the last day (Day 51) according to the protocol of FIG. 2.
On day 51, animals are sacrificed and skin is removed and fixed in formalin followed by embedment in paraffin, sectioning and staining with hematoxylin and eosin. Epidermis thickness is measured by averaging the values of measurements of five independent fields of view.
On day 51, animals are sacrificed and skin is removed and fixed in formalin followed by embedment in paraffin, sectioning and staining with hematoxylin and eosin. Inflammation score is quantified by averaging the values of 10 random fields of view per sample, scored for inflammation with a gradient (semi-quantitative scoring from 0 to 5).
At day 51, gene expression of IL4 cytokine is quantified after RNA extraction from skin, RNA retro transcription and PCR using the TaqMan® Universal MasterMix of Applied Biosystem. cDNA of mice of group Vehicle 001 are used as comparator.
At day 51, gene expression of TSLP cytokine is quantified after RNA extraction from skin, RNA retro transcription and PCR using the TaqMan® Universal MasterMix of Applied Biosystem. cDNA of mice of group Vehicle 001 are used as comparator.
AD inflammatory response was induced by epicutaneous sensitization with patches soaked with 100 μg of allergen in sterile saline (Dermatophagoïdes pteronyssinus or DERP) or with vehicle applied on abdominal skin 24 h after shaving and left on for three 1-wk periods (with patch renewal at midweek), with a 2-wk interval between applications. The presence of the patches and of a transparent occlusive dressing above, prevented licking, biting and scratching from mouse, therefore the inflammatory response in this model is not due to the scratch-itch cycle.
Antagonists B or D were formulated at 1% in an acetone vehicle, applied to the sensitized-skin 2 hours before DERP-patches installation. Topical treatments with antagonists or a corticosteroid (used as a control) were only performed 3 times in the 3rd and last week of sensitization (at days 44, 47 and 50).
At the time of the last patch removal (day 51), skin samples and blood were collected.
Skin was collected for histological, immunohistological analyses and real-time PCR after RNA extraction. Ig (IgE, and specific IgG) concentrations in serum were measured by ELISA

[3] = target: T1, hTRPV3 (Homo sapiens, UniProt Q8NET8); details: unit inferred; cited from earlier work
T1 sequence (Q8NET8 1-790): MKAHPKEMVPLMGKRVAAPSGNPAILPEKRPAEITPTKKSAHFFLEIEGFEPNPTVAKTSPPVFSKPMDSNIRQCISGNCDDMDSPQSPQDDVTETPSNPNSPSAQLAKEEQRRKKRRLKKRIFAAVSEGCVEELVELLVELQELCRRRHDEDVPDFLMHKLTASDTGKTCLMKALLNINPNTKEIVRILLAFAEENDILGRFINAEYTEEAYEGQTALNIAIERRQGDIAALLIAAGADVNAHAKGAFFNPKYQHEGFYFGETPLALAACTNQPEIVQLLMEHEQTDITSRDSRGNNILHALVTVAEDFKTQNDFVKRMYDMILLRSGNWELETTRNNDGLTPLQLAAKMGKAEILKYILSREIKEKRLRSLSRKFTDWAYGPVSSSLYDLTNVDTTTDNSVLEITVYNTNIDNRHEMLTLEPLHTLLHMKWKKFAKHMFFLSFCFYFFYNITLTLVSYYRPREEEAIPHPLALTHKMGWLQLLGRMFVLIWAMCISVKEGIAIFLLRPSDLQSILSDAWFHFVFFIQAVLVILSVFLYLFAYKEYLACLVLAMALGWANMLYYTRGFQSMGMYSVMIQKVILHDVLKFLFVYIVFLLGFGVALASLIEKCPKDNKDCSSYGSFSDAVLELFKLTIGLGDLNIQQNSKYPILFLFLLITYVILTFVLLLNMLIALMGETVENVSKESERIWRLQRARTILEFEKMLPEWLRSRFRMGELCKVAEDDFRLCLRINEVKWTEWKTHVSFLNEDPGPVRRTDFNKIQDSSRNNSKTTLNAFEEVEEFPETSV

[4] = target: hTRPA1 (Homo sapiens, UniProt O75762); details: value in μM; cited from earlier work
Sequence of hTRPA1 (O75762 whole entry): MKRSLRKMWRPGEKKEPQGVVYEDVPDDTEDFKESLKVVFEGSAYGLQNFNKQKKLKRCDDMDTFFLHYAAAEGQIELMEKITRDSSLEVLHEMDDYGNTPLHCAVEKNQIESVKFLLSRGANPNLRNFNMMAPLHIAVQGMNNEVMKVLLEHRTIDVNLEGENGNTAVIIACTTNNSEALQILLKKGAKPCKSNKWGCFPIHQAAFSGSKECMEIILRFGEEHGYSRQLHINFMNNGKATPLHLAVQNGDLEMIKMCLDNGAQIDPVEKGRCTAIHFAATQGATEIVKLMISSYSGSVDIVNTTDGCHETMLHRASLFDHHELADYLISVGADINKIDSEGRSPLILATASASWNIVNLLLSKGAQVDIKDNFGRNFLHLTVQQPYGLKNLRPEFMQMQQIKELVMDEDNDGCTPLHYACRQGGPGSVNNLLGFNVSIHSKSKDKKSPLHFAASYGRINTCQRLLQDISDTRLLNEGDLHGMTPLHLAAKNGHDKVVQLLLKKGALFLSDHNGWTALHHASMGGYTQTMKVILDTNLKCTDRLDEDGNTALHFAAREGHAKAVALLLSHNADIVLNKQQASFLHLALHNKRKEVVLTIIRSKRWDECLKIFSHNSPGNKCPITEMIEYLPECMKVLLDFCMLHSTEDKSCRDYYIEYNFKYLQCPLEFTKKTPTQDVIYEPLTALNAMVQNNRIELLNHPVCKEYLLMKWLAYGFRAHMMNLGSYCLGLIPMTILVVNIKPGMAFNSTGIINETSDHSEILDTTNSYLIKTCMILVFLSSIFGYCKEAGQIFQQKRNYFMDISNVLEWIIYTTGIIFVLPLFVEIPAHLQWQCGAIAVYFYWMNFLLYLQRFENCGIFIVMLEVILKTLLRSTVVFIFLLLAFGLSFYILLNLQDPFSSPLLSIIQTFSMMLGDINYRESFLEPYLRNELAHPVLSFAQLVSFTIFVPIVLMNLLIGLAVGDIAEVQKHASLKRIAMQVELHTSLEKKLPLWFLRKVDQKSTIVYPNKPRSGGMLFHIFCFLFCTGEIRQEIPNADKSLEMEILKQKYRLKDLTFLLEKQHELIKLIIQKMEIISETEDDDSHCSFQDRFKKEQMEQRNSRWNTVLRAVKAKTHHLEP

[5] = target: rTRPA1 (Rattus norvegicus, UniProt Q6RI86); details: cited from earlier work
Sequence of rTRPA1 (Q6RI86 whole entry): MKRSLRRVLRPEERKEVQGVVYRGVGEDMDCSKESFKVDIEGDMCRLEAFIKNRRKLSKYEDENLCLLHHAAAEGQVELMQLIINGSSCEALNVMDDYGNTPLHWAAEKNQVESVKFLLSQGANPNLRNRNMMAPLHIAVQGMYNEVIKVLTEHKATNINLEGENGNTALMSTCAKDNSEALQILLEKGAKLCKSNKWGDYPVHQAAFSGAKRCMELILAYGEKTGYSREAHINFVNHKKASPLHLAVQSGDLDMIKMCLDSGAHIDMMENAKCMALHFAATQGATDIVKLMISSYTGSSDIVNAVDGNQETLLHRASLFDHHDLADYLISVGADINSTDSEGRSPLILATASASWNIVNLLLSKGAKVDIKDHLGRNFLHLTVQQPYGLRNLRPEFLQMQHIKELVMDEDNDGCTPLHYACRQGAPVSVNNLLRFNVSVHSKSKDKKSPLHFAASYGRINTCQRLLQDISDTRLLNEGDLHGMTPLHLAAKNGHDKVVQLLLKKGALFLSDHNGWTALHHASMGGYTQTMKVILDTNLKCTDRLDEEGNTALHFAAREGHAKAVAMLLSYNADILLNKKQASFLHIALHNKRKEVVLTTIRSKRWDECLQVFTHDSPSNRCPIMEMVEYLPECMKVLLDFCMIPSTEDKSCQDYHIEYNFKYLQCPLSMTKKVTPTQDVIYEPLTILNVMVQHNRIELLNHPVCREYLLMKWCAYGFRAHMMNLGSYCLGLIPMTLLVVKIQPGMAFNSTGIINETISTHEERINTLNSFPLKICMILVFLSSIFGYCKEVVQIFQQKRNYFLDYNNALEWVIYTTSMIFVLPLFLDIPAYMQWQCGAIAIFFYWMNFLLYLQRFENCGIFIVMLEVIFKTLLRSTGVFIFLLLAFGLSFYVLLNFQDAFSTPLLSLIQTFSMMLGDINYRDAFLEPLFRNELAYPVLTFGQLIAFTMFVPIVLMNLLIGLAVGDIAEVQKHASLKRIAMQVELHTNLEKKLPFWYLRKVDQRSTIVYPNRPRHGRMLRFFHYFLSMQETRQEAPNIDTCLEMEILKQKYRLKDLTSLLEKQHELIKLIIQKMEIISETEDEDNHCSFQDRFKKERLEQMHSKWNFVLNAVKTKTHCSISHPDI

[6] = test system: pain models; details: cited from earlier work
[7] = test system: imiquimod-induced psoriasiform skin inflammation; test: Imiquimod (Aldara) psoriasiform model; format: in vivo, mouse; details: topical 1% in PG/EtOH twice daily, day 8
Description: The treatment protocol consists of a daily topical application of Aldara (3.18 mg of imiquimod) for 7 days on the shaved back skin of Balb/c mice. Compound C was dissolved in PG/EtOH at 1% and was applied twice daily 2 h before and 6 h after Aldara treatment. Corticosteroid was dissolved in acetone (Vehicle 001) at 0.01% and applied only 2 h before Aldara treatment. Epidermis thickness is then measured at day 8 according to the protocol of FIG. 3. […] Indeed, it induces inflamed scaly skin lesions resembling psoriasis plaques. […] IMQ induced epidermal expression of IL-23, IL-17A, and IL-17F, as well as an increase in splenic Th17 cells (J Immunol. 2009 May 1; 182(9):5836-45). Mice received a daily topical dose of 63.5 mg (14 μl) of commercially available IMQ cream (5%) (Aldara; 3M Pharmaceuticals) on the shaved back skin for 7 consecutive days.

[8] = cited from earlier work

Structure (SMILES)	TRPA1 agonist-induced ear edema (ear thickness) [1]	epidermis thickness, change [2] [%]	inflammatory scores, change [2] [%]	TEWL-increase, change [2] [%]	pIC50 [3]	IC50 [4] [µM]	pIC50 [5]	Efficacy described in pain models in rat ([6]; rat)	IL-17 production by yO T cells (IL17f mRNA) [7]	imiquimod-induced epidermis thickness increase [7]	Efficacy described in pain model (ip) ([6]; ip)	oral bioavailability described in rat [8]
Cc1cc2[nH]ncc2cc1-c1ccccc1C(F)(F)F [compound B]	decreased	−32	−27	−54	< 4.52							
CCC(C)c1ccc(NC(=O)Cn2cnc3c2c(=O)n(C)c(=O)n3C)cc1 (stereo not drawn) [compound D, reference compound]	decreased	−26	−32	−60		14 to 18	6.64	Efficacy				
FC(F)(F)c1ccccc1-c1cc2cn[nH]c2cc1OCC1CC1 [compound C]	decreased				< 4.52				did not significantly reduce	did not significantly reduce	Efficacy	Low oral
